Literature values as cited in patent publication US20050025723A1, “Sunburn treatment and sunburn prevention method” (priority 2000, published 2005).
“Also recorded” adds a separate entry of the source.

How the values were obtained:
fever = settings: compared with parent peptide α-MSH or α-MSH(11-13); literature statements
[1] = test system: melanocytes and melanoma cells
inflammation = settings: in vitro and in vivo; compared with parent molecule or the L-form tripeptide; literature statements
learning and memory = settings: in vivo

## 8-13 sequence: α-MSH 8-13 sequence (RWGKPV; Designed polypeptide with anti-inflammatory, anti-bacterial, anti-fungal and antipyretic properties.)
fever
  antipyretic potency / activity (reducing fever): greater than that of the 11-13 sequence

## [Nle^4,D-Phe^7]α-MSH
[1]
  biological activity on melanocytes and melanoma cells: marked biological activity
fever
  antipyretic potency / activity (reducing fever): approximately ten times more potent than the parent peptide

## Ac-[D-K11]-α-MSH 11-13-NH2
inflammation
  anti-inflammatory activity / potency: same general potency as the L-form of the tripeptide

## lysine-proline-valine [KPV]
inflammation
  anti-inflammatory activity / potency: parallel those of the parent molecule; also recorded: effective over a very broad range of concentrations, including picomolar concentrations
fever
  antipyretic potency / activity (reducing fever): parallel those of the parent molecule

## 10-13 sequence: α-MSH 10-13 sequence formed by addition of glycine to α-MSH(11-13) (GKPV; Designed polypeptide with anti-inflammatory, anti-bacterial, anti-fungal and antipyretic properties.)
fever
  antipyretic potency / activity (reducing fever): slightly decreased potency

## 9-13 sequence: α-MSH 9-13 sequence (WGKPV; C-terminal sequences of alpha-MSH)
fever
  antipyretic potency / activity (reducing fever): almost devoid of activity

## MEHFRWG [α-MSH sequence (4-10)]
inflammation
  anti-inflammatory activity / potency: little
fever
  antipyretic potency / activity (reducing fever): little
Learning and memory
  learning and memory behavioral effects: has learning and memory behavioral effects
